pEC50: −log10 of the molar value. Converted amounts (≈) assume the structure as drawn. Where two headings read alike, the source gives them in different places.
Assays:
[1] = system: A/New Caledonia/20/99 BVLV008 (H1N1); assay: Plaque reduction assay (PRA) in MDCK cells; type: cell-based, influenza A H1N1; conditions: reduces plaque numbers by 50%, A/New Caledonia/20/99 (H1N1); for EC50: Influenza A virus, H1N1, MDCK
Description: (§1) Madin Darby Canine Kidney (MDCK) cells are seeded into six well tissue culture plates and grown to confluency via standard methods. Influenza viruses are diluted in a minimal volume of phosphate buffered saline supplemented with 0.2% bovine serum albumin to yield an estimated titre of 50–100 plaque forming units (pfu) per well. After adsorption to the MDCK cells for one hour at 37° C. in a 5% CO2 atmosphere the viral inocula is aspirated and replaced with viral growth media (minimal Eagle's media supplemented with BSA, trypsin and insulin/transferrin/selenium at optimal concentrations) containing sufficient agar or agarose (generally 1–2%) to cause the media to gel at room temperature and at 37° C. in a 5% CO2 atmosphere until plaques develop (generally 2–4 days). Plaques can be visualised with a suitable stain (e.g. 0.4% crystal violet in formal saline) before counting.

[2] = system: A/Panama/2007/99 BVLV008 (H3N2); assay: Plaque reduction assay (PRA) in MDCK cells; type: cell-based, influenza A H3N2; conditions: reduces plaque numbers by 50%, A/Panama/2007/99 (H3N2); for EC50: Influenza A virus, H3N2, MDCK, read-out: EC50 PRA A/Pan
Description: as §1

[3] = system: A/Victoria/3/75 BVLV017 (H3N2); assay: Plaque reduction assay (PRA) in MDCK cells; type: cell-based, influenza A H3N2; conditions: Influenza A virus, MDCK; reduces plaque numbers by 50%; A/Victoria/3/75 (H3N2); read-out: EC50 PRA A/Vic
Description: as §1

[4] = system: B/Hong Kong/5/72 BVLV012; assay: Plaque reduction assay (PRA) in MDCK cells; type: cell-based, influenza B; conditions: Influenza B virus, MDCK, read-out: EC50 PRA B/HongK
Description: as §1

[5] = system: B/Yamanashi/166/98 BVLV007; assay: Plaque reduction assay (PRA) in MDCK cells; type: cell-based, influenza B; conditions: Influenza B virus, MDCK, B/Yamanashi/166/98
Description: as §1

[6] = system: Influenza A/Sydney/5/97; type: cell-based; conditions: concentration that inhibited CPE by 50%; MDCK cells, up to 72 hours, MTT
[7] = system: Influenza B/Harbin/7/95; type: cell-based; conditions: concentration that inhibited CPE by 50%; MDCK cells, up to 72 hours, MTT
[8] = system: A/Bayern/7/95 BVL006 (H1N1); assay: Plaque reduction assay (PRA) in MDCK cells; type: cell-based, influenza A H1N1; conditions: Influenza A virus, MDCK; reduces plaque numbers by 50%; A/Bayern/7/95 (H1N1); read-out: EC50 PRA A/Bay
Description: as §1

[9] = system: A/WSN/33 BVLV09 (H1N1); assay: Plaque reduction assay (PRA) in MDCK cells; type: cell-based, influenza A H1N1; conditions: reduces plaque numbers by 50%, A/WSN/33 (H1N1)
Description: as §1

[10] = system: A/Sydney/5/97 BVLV015 (H3N2); assay: Plaque reduction assay (PRA) in MDCK cells; type: cell-based, influenza A H3N2; conditions: Influenza A virus, MDCK; reduces plaque numbers by 50%; A/Sydney/5/97 (H3N2); read-out: EC50 PRA A/Syd
Description: as §1

[11] = Rat lung retention assay (intra-tracheal dosing, compound level in lung tissue); type: in vivo; conditions: rat, in vivo, 0.1 mg/kg
Description: Rodents are anaesthetised and dosed with compound of interest by the intra-tracheal route at a dose volume of 0.8 ml/kg. The rodent is then held in the vertical position until full recovery is achieved. […] Any analytical method suitable for detection of this type of compound may be used. The time at which levels of compound fall below the sensitivity of the analytical techniques identified will determine the residency time of the compound in lung tissue.
Please note that all experiments included a co-dosed internal standard, namely compound 3 of International Patent Publication No. WO 02/20514, to permit comparison. The data are expressed as a ratio with respect to this compound, the structure of which is shown below.

[12] = system: recent clinical isolates; conditions: in vitro assays involving recent clinical isolates, Woods et al 1993; cited from earlier work
[13] = reduces plaque numbers by 50%, B/Hong Kong/5/72

Structure (SMILES)	EC50 [1] [ng/mL]	EC50 [2] [ng/mL]	EC50 [3] [ng/mL]	ID50 A/Sydney/5/97 [6] [ng/mL]	ID50 B/Harbin/7/95 [7] [ng/mL]	also measured
CCOC(=O)C1=C[C@@H](OC(CC)CC)[C@H](NC(C)=O)[C@@H](N)C1 [Oseltamivir]	0.23 (≈ 0.736 nM)	0.3 (≈ 0.96 nM)	0.11 (≈ 0.352 nM)	–	–	EC50 [4]: 32 ng/mL (≈ 102 nM); EC50 ([5]; read-out: EC50 PRA B/Yam, reduces plaque numbers by 50%): 0.7 ng/mL (≈ 2.24 nM)
CC(=O)N[C@H]1[C@H]([C@H](OC(=O)NCCCCCCNC(=O)c2ccccc2C(=O)NCCCCCCNC(=O)O[C@@H]([C@@H]2OC(C(=O)O)=C[C@H](NC(=N)N)[C@H]2NC(C)=O)[C@H](O)CO)[C@H](O)CO)OC(C(=O)O)=C[C@@H]1NC(=N)N [Compound 7]	–	–	–	0.7 (≈ 0.649 nM)	0.8 (≈ 0.741 nM)	–
NC12CC3CC(CC(C3)C1)C2 [Amantadine]	11 (≈ 72.7 nM)	157 (≈ 1040 nM)	220 (≈ 1450 nM)	–	–	EC50 [4, 13]: > 10000 ng/mL; EC50 ([5]; reduces plaque numbers by 50%, read-out: EC50 PRA B/Yam): 2060 ng/mL (≈ 13600 nM)
CC(=O)N[C@H]1[C@H]([C@H](OC(=O)NCCCNC(=O)Cc2ccc(CC(=O)NCCCNC(=O)O[C@@H]([C@@H]3OC(C(=O)O)=C[C@H](NC(=N)N)[C@H]3NC(C)=O)[C@H](O)CO)cc2)[C@H](O)CO)OC(C(=O)O)=C[C@@H]1NC(=N)N [Compound 13]	–	–	–	0.1 (≈ 0.0977 nM)	0.3 (≈ 0.293 nM)	–
CC(=O)N[C@@H]1C(N=C(N)N)C=C(C(=O)O)O[C@H]1[C@H](O)[C@H](O)CO (single isomer, unassigned) [Compound A, 4-guanidino-2-deoxy-2,3-dehydro-N-acetylneuraminic acid, reference compound]	0.27 (≈ 0.812 nM)	2.7 (≈ 8.12 nM)	5.5 (≈ 16.6 nM)	23 ± 24 (≈ 69.2 nM)	13 ± 11 (≈ 39.1 nM)	EC50 [8]: 35 ng/mL (≈ 105 nM); EC50 PRA A/New [1]: 0.23 ng/mL (≈ 0.692 nM); EC50 ([9]; Influenza A virus, MDCK): 56 ng/mL (≈ 169 nM); EC50 PRA A/WSN [9]: > 100 ng/mL; EC50 PRA A/Pan [2]: 3 ng/mL (≈ 9.03 nM); EC50 [10]: 2.4 ng/mL (≈ 7.22 nM); EC50 [4, 13]: 21 ng/mL (≈ 63.2 nM); Ratio Mean [lung] [cmpd]/PCT AU01/01128 compound 3 ([11]; 48 h): 0.26; Ratio Mean [lung] [cmpd]/PCT AU01/01128 compound 3 ([11]; 168 h): 0.08; concentration at 48 h ([11]; Mean [cmpd] ng/g): 352 ng/g; concentration at 168 h ([11]; Mean [cmpd] ng/g): 61 ng/g; concentration at 48 h ([11]; [cmpd] ng/g): 421 ng/g; pEC50 [12]: 6.80 to 7.70
CC(=O)N[C@H]1[C@H]([C@H](OC(=O)NCCCNC(=O)c2cc(C(=O)O)cc(C(=O)NCCCNC(=O)O[C@@H]([C@@H]3OC(C(=O)O)=C[C@H](NC(=N)N)[C@H]3NC(C)=O)[C@H](O)CO)c2)[C@H](O)CO)OC(C(=O)O)=C[C@@H]1NC(=N)N [Compound 9]	–	–	–	0.1 (≈ 0.0962 nM)	0.3 (≈ 0.289 nM)	–
CC(=O)N[C@@H]1[C@@H](NC(=N)N)C=C(C(=O)O)O[C@H]1C(OC(=O)NCCC(=O)NCc1ccc(CNC(=O)CCNC(=O)O[C@@H]([C@@H]2OC(C(=O)O)=C[C@H](NC(=N)N)[C@H]2NC(C)=O)[C@H](O)CO)cc1)[C@H](O)CO (stereo partly drawn) [Compound 4]	–	–	–	0.3 (≈ 0.302 nM)	0.4 (≈ 0.402 nM)	–

From patent US7157494B2, “Dimeric compounds and their use as anti-viral agents” (priority 2001, dated 2007)
